Reference: US20050187462A1, “Dynamic contrast enhanced imaging using a mamillary distributed parameter model” (priority 2004, published 2005)

Assay: Prostate case study: DCE CT tissue concentration-time curve fitted to 2-, 3- and 4-compartment mamillary distributed-parameter models
Assay type: in vivo, patient
Conditions: value (percent CV); for t1: vascular transit time
Description: It is instructive to apply the present mamillary model to a tumor study case to further illustrate some physiological aspects of the model, and also for comparison with another model. Ca(t) was sampled at the iliac arteries simultaneously in the same CT scan as the prostate tissue concentration-time curve, Ctiss(t). The contrast medium used was the x-ray dye lopamidol and the region of interest for Ctiss was drawn over the prostate gland. Example imaging and patient protocols that were used are, for example, expounded upon in T. S. Koh, V. Zeman, J. Darko, T. Lee, M. F. Milosevic, M. Haider, P. Warde, and I. W. T. Yeung, “The inclusion of capillary distribution in the adiabatic tissue homogeneity model of blood flow”, Phys. Med. Biol., vol. 46, pp. 1519-1538, 2001.
The ‘goodness-of-fit’ between model and data can be given by the χ^2 statistic as detailed in equation (11).
A 2-compartment distributed-parameter model has 4 adjustable parameters (i.e F, t1, k12 and k21), and each additional compartment introduces two additional parameters given by the rate constants.
The tissue concentration-time curve Ctiss(t) was sampled at a region of interest over the prostate tumor. […] A test statistic to compare the goodness-of-fit of a more complex model (χ^2c) with that of a less complex (reduced) model (χ^2r) can be given by equation (12), namely [formula] which follows the F-distribution. The degrees of freedom dfr and dfc are those associated with the reduced and complex models, respectively. […] Correspondingly, large values of F* would justify the more complex model.
The fitted Ctiss(t) curves using 2-, 3- and 4-compartment distributed-parameter models are shown in FIG. 5 and their corresponding impulse residue functions are shown in FIG. 6. The values for the parameters adjusted in the model fittings together with their error estimates (as percent CVi) are listed in Table 1.

[1] = 2-compartment model, rate constant for tracer transfer
[2] = 3-compartment model, rate constant for tracer transfer
[3] = 4-compartment model, rate constant for tracer transfer

K12 [1]: 0.744 (4) min^−1
K21 [1]: 2.183 (4) min^−1
t1 (2-compartment model): 0.717 (3) min
K12 [2]: 1.581 (17) min^−1
K13 [2]: 0.259 (28) min^−1
K21 [2]: 1.854 (15) min^−1
K31 [2]: 0.818 (25) min^−1
t1 (3-compartment model): 0.688 (9) min
K12 [3]: 1.579 (20) min^−1
K13 [3]: 0.264 (36) min^−1
K14 [3]: 0.000 (53) min^−1
K21 [3]: 1.853 (17) min^−1
K31 [3]: 0.816 (32) min^−1
K41 [3]: 0.000 (44) min^−1
t1 (4-compartment model): 0.688 (11) min
SMILES: C[C@H](O)C(=O)Nc1c(I)c(C(=O)NC(CO)CO)c(I)c(C(=O)NC(CO)CO)c1I [lopamidol]
